Measured values as given in US20060281813A1, “Methods of treating hyperproliferative cell disorders” (priority 2003, published 2006).

Tests used:
ER+ or ER− tumor lines = conditions: all the ER+ or ER− tumor lines examined; cited from earlier work
[1] = test system: retinoid receptor subtype; conditions: competition with all-trans RA; cited from earlier work
[2] = test system: acute lymphoblastic leukemia; test: Example 1: patient with relapsed acute lymphoblastic leukemia; type: in vivo, human
Method: A person was diagnosed with acute lymphoblastic leukemia. […] 15 received a chemotherapy induction regimen of eight cycles of Hyper-CVAD which consists of the following: Cyclophosphamide 300 mg/mn^2 intravenously (IV) over 3 hours every 12 hours for six doses on days 1 through 3, with mesna at the same total dose as cyclophosphamide but given bycontinuous infusion starting with cyclophosphamide and ending 6 hours after the last dose; vincristine 2 mg IV days 4 and 11; doxorubicin 50 mg/^2 IV day 4; and dexamethasone 40 mg daily on days 1 through 4 and 11 through 14.
In addition, high dose methotrexate-cytarabine (ara-c) was used as follows: MTX (methotrexate) 200 mg/m^2 IV over 2 hours followed by 800 mg/m^2 IV over 24 hours on day 1; citrovorum factor rescue starting 24 hours after completion of MTX infusion at 15 mg every 6 hours x 8, and increased to 50 mg every 6 hours if MTX levels were more 25 than 20 ,upmol/L at the end of the infuision, more than 1 μμmol/L 24 hours later, or more than 0.1 μμmol/L48 hours after the end of MTX infusion, until levels were lower than 0.1μμM; ara-C (cytarabine) […] over 2 hours every 12 hours ×4 on days 2 and 3; and methylprednisolone 50 mg IV twice daily on days 1 through 3.
About a year later, they relapsed with the presence of cancer cells in blood and bone marrow. Thereafter, they underwent a salvage chemotherapy regimen of FLAG (fludarabine, ara-c and G-CSF) with the following doses: fludarabine 30 mg/m^2lday for 5 days; ara-C (cytarabine) 2 g/m^2/day for 5 days (FLAG); and G-CSF (neupogen or granulocyte colony stimulating factor) 400 micrograms/m^2/day. […] They were then given the same salvage regimen plus a daily oral dose of 4-oxo-retinol at 150 mg per day for 28 days. […] This remission lasted for one month before relapse.
The same salvage regimen was repeated with oral administration of4-oxo-retinol (75 mg per day for 18 days) in addition to a daily dose of calcitriol (50 mcg per day concomitant with the administration of 4-oxo-retinol).

[3] = FLAG salvage regimen plus oral 150 mg per day for 28 days

Question: With `CC(C=CC1=C(C)C(=O)CCC1(C)C)=CC=CC(C)=CCO` [4-oxo-retinol] as the compound, how does the growth inhibition (ER+ or ER− tumor lines) read?
Answer: The growth inhibition was “growth inhibitory”.

Question: What about the “displacement of all-trans RA” value [1] of the same compound?
Answer: Its value is “Neither compound efficiently displaced all-trans RA”.

Question: What about the response ([2]; FLAG salvage regimen plus oral 75 mg per day for 18 days and calcitriol 50 mcg per day) of the same compound?
Answer: Its response is “complete remission”.

Question: What about the “duration of remission before relapse” value [2, 3] of the same compound?
Answer: The value was “one”.

Question: What about the lymph nodes [2, 3] of the same compound?
Answer: Its lymph nodes is “shrinkage of the lumph nodes to normal size”.

Question: What about the “response (blood and bone marrow)” value [2, 3] of the same compound?
Answer: Its value is “complete remission”.
